From patent US20240158446A1, “CYCLIC COMPOUND HAVING SELECTIVE INHIBITORY ACTION ON KRAS OVER HRAS AND NRAS” (CHUGAI SEIYAKU KABUSHIKI KAISHA, priority 2021, published 2024)
pKd: −log10 of the molar value.

Columns and labels:
[1] = biological target: GDP-bound HRAS wild-type protein (Homo sapiens, UniProt P01112); assay: Binding to HRAS by surface plasmon resonance (SPR), Single Cycle Kinetics; conditions: SPR KD ratio HRAS/KRAS, class symbols
[2] = biological target: GDP-bound NRAS wild-type protein (Homo sapiens, UniProt P01111); assay: Binding to NRAS by surface plasmon resonance (SPR), Single Cycle Kinetics; conditions: SPR KD ratio NRAS/KRAS, class symbols
Chain of GDP-bound NRAS wild-type protein (P01111 whole entry): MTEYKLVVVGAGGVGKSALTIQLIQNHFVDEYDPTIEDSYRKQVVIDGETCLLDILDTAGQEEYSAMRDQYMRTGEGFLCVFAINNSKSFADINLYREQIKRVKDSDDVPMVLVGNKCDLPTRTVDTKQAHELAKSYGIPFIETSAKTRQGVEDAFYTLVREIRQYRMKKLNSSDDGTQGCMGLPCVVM

[3] = biological target: GDP-bound KRAS wild-type protein (Homo sapiens, UniProt P01116); assay: Binding to KRAS by surface plasmon resonance (SPR), Single Cycle Kinetics; conditions: SPR Single Cycle Kinetics, GDP-bound KRAS wild-type protein, 1:1 binding model; read-out: KRAS KD
Chain of GDP-bound KRAS wild-type protein (P01116 whole entry): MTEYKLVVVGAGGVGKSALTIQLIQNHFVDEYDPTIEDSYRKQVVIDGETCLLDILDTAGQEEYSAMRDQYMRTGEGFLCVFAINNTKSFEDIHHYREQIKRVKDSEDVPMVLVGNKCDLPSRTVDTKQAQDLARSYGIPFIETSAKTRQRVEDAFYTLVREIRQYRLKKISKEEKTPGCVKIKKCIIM

Chain of GDP-bound HRAS wild-type protein (P01112 whole entry): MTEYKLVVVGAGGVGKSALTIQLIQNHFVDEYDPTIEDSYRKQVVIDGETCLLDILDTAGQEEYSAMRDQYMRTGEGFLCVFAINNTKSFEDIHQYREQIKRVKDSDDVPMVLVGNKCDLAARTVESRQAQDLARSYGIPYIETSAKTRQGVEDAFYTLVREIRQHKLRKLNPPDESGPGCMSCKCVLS

Row | pKd [3] | SMILES | HRAS/KRAS (ratio of KD value with respect to GDP-bound HRAS wild-type protein to KD value with respect to KRAS) [1] | NRAS/KRAS (ratio of KD value with respect to GDP-bound NRAS wild-type protein to KD value with respect to KRAS) [2]
1 | 8.06 | CCC[C@H]1C(=O)N[C@@H]([C@@H](C)CC)C(=O)N(C)CC(=O)N(C)[C@H]2C/C=C\CCN(C2=O)[C@@H](Cc2ccc(C(F)(F)F)cc2)C(=O)N(C)CC(=O)N[C@@H](CCc2ccc3ccn(C)c3c2)C(=O)N2C[C@H](OCC)C[C@H]2C(=O)NC2(CC(C)(C)C2)C(=O)N(C)[C@@H](C(CC)CC)C(=O)N(C)[C@H](C(=O)N(C)C)CC(=O)N1C [PP2912] | A (a compound having 10 or more and less than 20 is denoted as A) | AA (a compound having 20 or more is denoted as AA)
2 | 9.77 | CCCN(C)C(=O)[C@@H]1CC(=O)N(C)[C@@H](CC)C(=O)N[C@@H]([C@@H](C)CC)C(=O)N(C)CC(=O)N(C)[C@H]2C/C=C\CCN(C2=O)[C@@H](Cc2ccc(C(F)(F)F)cc2)C(=O)N(C)CC(=O)N[C@@H](CCc2cc(F)c(C(F)(F)F)c(F)c2)C(=O)N2C[C@H](OCC3CC3)C[C@H]2C(=O)NC2(CCC2)C(=O)N(C)[C@@H](C2CCCC2)C(=O)N1C [PP2913] | A (a compound having 10 or more and less than 20 is denoted as A) | A (a compound having 10 or more and less than 20 is denoted as A)
3 | 8.92 | CCCN(C)C(=O)[C@@H]1CC(=O)N(C)[C@@H](CC)C(=O)N[C@@H]([C@@H](C)CC)C(=O)N(C)CC(=O)N(C)[C@H]2C/C=C\CCN(C2=O)[C@@H](Cc2ccc(C(F)(F)F)cc2)C(=O)N(C)CC(=O)N[C@@H](CCc2cc(F)c(C(F)(F)F)c(F)c2)C(=O)N2CC[C@H]2C(=O)NC2(CCC2)C(=O)N(C)[C@@H](C2CCCC2)C(=O)N1C [PP2915] | A (a compound having 10 or more and less than 20 is denoted as A) | A (a compound having 10 or more and less than 20 is denoted as A)
4 | 8.89 | CCC(CC)[C@H]1C(=O)N(C)[C@H](C(=O)N(C)C)CC(=O)N(C)[C@@H](COC)C(=O)N[C@@H]([C@@H](C)CC)C(=O)N(C)CC(=O)N(C)[C@H]2C/C=C\CCN(C2=O)[C@@H](Cc2ccc(C(F)(F)F)cc2)C(=O)N(C)CC(=O)N[C@@H](CCc2cc(F)c(C(F)(F)F)c(F)c2)C(=O)N2CCCC[C@H]2C(=O)NC2(CC(C)(C)C2)C(=O)N1C [PP2916] | A (a compound having 10 or more and less than 20 is denoted as A) | A (a compound having 10 or more and less than 20 is denoted as A)
5 | 8.85 | CCC(CC)[C@H]1C(=O)N(C)[C@H](C(=O)N(C)C)CC(=O)N(C)[C@@H](COC)C(=O)N[C@@H]([C@@H](C)CC)C(=O)N(C)CC(=O)N(C)[C@H]2C/C=C\CCN(C2=O)[C@@H](Cc2ccc(C(F)(F)F)cc2)C(=O)N(C)CC(=O)N[C@@H](CCc2cc(F)c(C(F)(F)F)c(F)c2)C(=O)N2CCOC[C@H]2C(=O)NC2(CC(C)(C)C2)C(=O)N1C [PP2917] | A (a compound having 10 or more and less than 20 is denoted as A) | AA (a compound having 20 or more is denoted as AA)
6 | 8.74 | CCC(CC)[C@H]1C(=O)N(C)[C@H](C(=O)N(C)C)CC(=O)N(C)[C@@H](COC)C(=O)N[C@@H]([C@@H](C)CC)C(=O)N(C)CC(=O)N(C)[C@H]2C/C=C\CCN(C2=O)[C@@H](Cc2ccc(C(F)(F)F)cc2)C(=O)N(C)CC(=O)N[C@@H](CCc2cc(F)c(C(F)(F)F)c(F)c2)C(=O)N2CC[C@H]2C(=O)NC2(CC(C)(C)C2)C(=O)N1C [PP2918] | A (a compound having 10 or more and less than 20 is denoted as A) | AA (a compound having 20 or more is denoted as AA)
7 | 8.40 | CCC[C@H]1C(=O)N[C@@H]([C@@H](C)CC)C(=O)N(C)CC(=O)N(C)[C@H]2C/C=C\CCN(C2=O)[C@@H](Cc2ccc(C(F)(F)F)cc2)C(=O)N(C)CC(=O)N[C@@H](CCc2ccc(Cl)c(Cl)c2)C(=O)N2CCOC[C@H]2C(=O)NC2(CC(C)(C)C2)C(=O)N(C)[C@@H](C(CC)CC)C(=O)N(C)[C@H](C(=O)N(C)C)CC(=O)N1C [PP2920] | A (a compound having 10 or more and less than 20 is denoted as A) | AA (a compound having 20 or more is denoted as AA)
8 | 8.16 | CCC[C@H]1C(=O)N[C@@H]([C@@H](C)CC)C(=O)N(C)CC(=O)N(C)[C@H]2C/C=C\CCN(C2=O)[C@@H](Cc2ccc(C(F)(F)F)cc2)C(=O)N(C)CC(=O)N[C@@H](CCc2ccc(Cl)c(Cl)c2)C(=O)N2CC[C@H]2C(=O)NC2(CC(C)(C)C2)C(=O)N(C)[C@@H](C(CC)CC)C(=O)N(C)[C@H](C(=O)N(C)C)CC(=O)N1C [PP2921] | A (a compound having 10 or more and less than 20 is denoted as A) | AA (a compound having 20 or more is denoted as AA)
9 | 8.32 | CCC[C@H]1C(=O)N[C@@H]([C@@H](C)CC)C(=O)N(C)CC(=O)N(C)[C@H]2C/C=C\CCN(C2=O)[C@@H](Cc2ccc(C(F)(F)F)cc2)C(=O)N(C)CC(=O)N[C@@H](CCc2ccc(C(F)(F)F)c(Cl)c2)C(=O)N2CCCC[C@H]2C(=O)NC2(CC(C)(C)C2)C(=O)N(C)[C@@H](C(CC)CC)C(=O)N(C)[C@H](C(=O)N(C)C)CC(=O)N1C [PP2928] | A (a compound having 10 or more and less than 20 is denoted as A) | AA (a compound having 20 or more is denoted as AA)
10 | 8.64 | CCC[C@H]1C(=O)N[C@@H]([C@@H](C)CC)C(=O)N(C)CC(=O)N(C)[C@H]2C/C=C\CCN(C2=O)[C@@H](Cc2ccc(C(F)(F)F)cc2)C(=O)N(C)CC(=O)N[C@@H](CCc2ccc(C(F)(F)F)c(Cl)c2)C(=O)N2CCOC[C@H]2C(=O)NC2(CC(C)(C)C2)C(=O)N(C)[C@@H](C(CC)CC)C(=O)N(C)[C@H](C(=O)N(C)C)CC(=O)N1C [PP2929] | A (a compound having 10 or more and less than 20 is denoted as A) | AA (a compound having 20 or more is denoted as AA)
11 | 8.70 | CCC[C@H]1C(=O)N[C@@H]([C@@H](C)CC)C(=O)N(C)CC(=O)N(C)[C@H]2C/C=C\CCN(C2=O)[C@@H](Cc2ccc(C(F)(F)F)cc2)C(=O)N(C)CC(=O)N[C@@H](CCc2ccc(C(F)(F)F)c(OC)c2)C(=O)N2CCCC[C@H]2C(=O)NC2(CC(C)(C)C2)C(=O)N(C)[C@@H](C(CC)CC)C(=O)N(C)[C@H](C(=O)N(C)C)CC(=O)N1C [PP2934] | A (a compound having 10 or more and less than 20 is denoted as A) | AA (a compound having 20 or more is denoted as AA)
12 | 8.82 | CCC[C@H]1C(=O)N[C@@H]([C@@H](C)CC)C(=O)N(C)CC(=O)N(C)[C@H]2C/C=C\CCN(C2=O)[C@@H](Cc2ccc(C(F)(F)F)cc2)C(=O)N(C)CC(=O)N[C@@H](CCc2ccc(C(F)(F)F)c(OC)c2)C(=O)N2CCOC[C@H]2C(=O)NC2(CC(C)(C)C2)C(=O)N(C)[C@@H](C(CC)CC)C(=O)N(C)[C@H](C(=O)N(C)C)CC(=O)N1C [PP2935] | A (a compound having 10 or more and less than 20 is denoted as A) | A (a compound having 10 or more and less than 20 is denoted as A)
13 | 8.57 | CCC[C@H]1C(=O)N[C@@H]([C@@H](C)CC)C(=O)N(C)CC(=O)N(C)[C@H]2C/C=C\CCN(C2=O)[C@@H](Cc2ccc(C(F)(F)F)cc2)C(=O)N(C)CC(=O)N[C@@H](CCc2ccc(C(F)(F)F)c(OC)c2)C(=O)N2CC[C@H]2C(=O)NC2(CC(C)(C)C2)C(=O)N(C)[C@@H](C(CC)CC)C(=O)N(C)[C@H](C(=O)N(C)C)CC(=O)N1C [PP2936] | A (a compound having 10 or more and less than 20 is denoted as A) | AA (a compound having 20 or more is denoted as AA)
14 | 8.60 | CCC(CC)[C@H]1C(=O)N(C)[C@H](C(=O)N(C)C)CC(=O)N(C)[C@@H](COC)C(=O)N[C@@H]([C@@H](C)CC)C(=O)N(C)CC(=O)N(C)[C@H]2C/C=C\CCN(C2=O)[C@@H](Cc2ccc(C(F)(F)F)cc2)C(=O)N(C)CC(=O)N[C@@H](CCc2ccc(Cl)c(Cl)c2)C(=O)N2CCOC[C@H]2C(=O)NC2(CC(C)(C)C2)C(=O)N1C [PP2941] | A (a compound having 10 or more and less than 20 is denoted as A) | AA (a compound having 20 or more is denoted as AA)
15 | 10.28 | CCC[C@H]1C(=O)N[C@@H]([C@@H](C)CC)C(=O)N(C)CC(=O)N(C)[C@H]2C/C=C\CCN(C2=O)[C@@H](Cc2ccc(C(F)(F)F)cc2)C(=O)N(C)CC(=O)N[C@@H](CCc2cc(Cl)c3sccc3c2)C(=O)N2C[C@H](OCC)C[C@H]2C(=O)NC2(CC(C)(C)C2)C(=O)N(C)[C@@H](C2CCCC2)C(=O)N(C)[C@H](C(=O)N(C)C)CC(=O)N1C [PP2946] | A (a compound having 10 or more and less than 20 is denoted as A) | A (a compound having 10 or more and less than 20 is denoted as A)
